Legend:
[1] = molecular target: T1, eqBChE (equine butyrylcholinesterase) (Equus caballus, UniProt P81908); test: biochemical
T1 construct: butyrylcholinesterase (eqBuChE, E.C. 3.1.1.8, from equine serum); purchased Sigma Aldrich; host or cells: equine serum
Method: The eeAChE and eqBChE inhibitory activities of the compounds under study were determined following the Ellman’s method [32, 33]
Substrate solutions (ATCI or BCTI) were prepared in deionized water (conductivity ˂ 0.1 µS.cm-
Evaluation of eel acetylcholinesterase and equine butyrylcholinesterase inhibitory
The eeAChE and eqBChE inhibitory activities of the compounds under study were evaluated following the Ellman’s method [1, 2]. Briefly, a mixture containing sodium phosphate buffer, enzyme (final concentration: eeAChE 0.05 U/mL and eeBChE 0.05 U/mL), DTNB (final concentration: 400 µM) and the test compounds/reference inhibitors were preincubated for 5 minutes at 30 °C in a 96-well microplate (BRANDplates, pureGradeTM, BRAND GMBH, Wertheim, Germany). In control experiments, sodium phosphate buffer was used instead of the
ºC in a microplate reader (BioTek Synergy HT from BioTek Instruments, Winooski, VT, USA).
The rates of the substrate enzymatic hydrolysis were determined, normalized and plotted against the respective inhibitor concentration. IC50 values were obtained from the dose-response curves
and were expressed as mean ± standard deviation. IC50 values were determined in at least three
independent experiments, each performed at least in triplicates.

[2] = Differential pulse voltammetry (DPV); assay type: physicochemical; conditions: pH 7.4, glassy carbon electrode; for Ep (redox potential): first anodic peak
Method: DPV experiments were performed as described in literature (see supplementary information).
1.4. Electrochemical measurements
Voltammetric studies were carried out using an Autolab PGSTAT 12 potentiostat/galvanostat (Metrohm-Autolab, Netherlands) and one compartment glass electrochemical cell. The voltammetric data were acquired at room temperature using a three-electrode system: a glassy carbon working electrode (GCE) (d = 2 mm), a platinum wire counter electrode and an Ag/AgCl saturated KCl reference electrode (Metrohm, Switzerland). The working electrode was polished manually with an aqueous slurry of alumina powder (BDH Chemicals, VWR, USA) on a microcloth pad and rinsed with water before use. A Crison pH-meter with glass electrode was used for the pH measurements (Crison, Barcelona, Spain).
Differential pulse voltammetry (DPV) experiments were performed as described elsewhere. Test solutions were prepared directly in the electrochemical cell, by diluting ethanolic solutions of the compounds under study (10 mM, 100 μL) in the supporting electrolyte (10 mL) to obtain a final concentration of 100 μM. The scan rate used in differential pulse voltammetry (DPV) was 5 mV.s−1.
All reagents used were of analytical grade or of the highest grade available. Neutral red (NR) solution, resazurin, Dulbecco’s Modified Eagle’s Medium (DMEM) with 4.5 g/L glucose, retinoic acid, 12-O-tetradecanoylphorbol-13-acetate (TPA), 2’,7’-dichorofluorescein diacetate (DCFH-DA), Rhodamine 123 (RHO 123) and zosuquidar (ZOS) were obtained from Sigma Aldrich. Reagents used in cell culture such as heat-inactivated fetal bovine serum (FBS), antibiotic (10,000 U/mL penicillin, 10,000 μg/mL streptomycin), MEM Non-Essential Amino Acids solution (100×) (MEM NEAA), Hanks’ balanced salt solution (HBSS) with or without calcium and magnesium (HBSS(+/+) or HBSS (-/-), respectively) and 0.25% trypsin/1 mM ethylenediamine tetraacetic acid (EDTA) were purchased from Gibco Laboratories (Lenexa, KS, USA). Dimethylsulfoxide (DMSO), absolute ethanol, sodium bicarbonate and acetic acid were obtained from Merck (Darmstadt, Germany). Triton™ X-100 detergent solution was acquired from Thermo Fisher Scientific (Waltham, MA, USA).
Human neuroblastoma SH-SY5Y cells were routinely cultured into […] and maintained in DMEM with 4.5 g/L glucose, supplemented with 10 % heat-inactivated FBS (v/v), 1 % MEM NEAA (v/v) and 1% penicillin/streptomycin (v/v). Cells were maintained at 37 °C in a humidified, 5% CO2−95% air atmosphere, and the cell culture medium was changed every 2-3

hMAO-B = molecular target: T2, hMAO-B (Homo sapiens, UniProt P27338); test: biochemical; design: purchased Sigma Aldrich; host or cells: insect cells (BTI-TN-5B1-4), baculovirus
T2 sequence (P27338 1-520): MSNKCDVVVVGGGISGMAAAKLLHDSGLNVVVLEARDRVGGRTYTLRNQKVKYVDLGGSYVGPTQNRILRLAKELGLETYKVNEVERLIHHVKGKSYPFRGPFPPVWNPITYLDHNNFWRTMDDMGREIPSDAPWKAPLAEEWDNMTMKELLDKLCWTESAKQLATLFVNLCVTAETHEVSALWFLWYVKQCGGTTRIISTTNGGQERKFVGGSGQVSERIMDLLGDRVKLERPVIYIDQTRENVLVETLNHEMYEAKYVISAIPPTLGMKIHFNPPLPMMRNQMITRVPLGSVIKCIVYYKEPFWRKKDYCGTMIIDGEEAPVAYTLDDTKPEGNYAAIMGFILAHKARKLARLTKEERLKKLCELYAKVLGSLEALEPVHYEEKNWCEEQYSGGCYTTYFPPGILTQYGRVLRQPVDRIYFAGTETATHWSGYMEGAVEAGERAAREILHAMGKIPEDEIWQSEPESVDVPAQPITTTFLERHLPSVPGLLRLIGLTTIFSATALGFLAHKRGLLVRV
Method: The inhibitory activity of lipophilic TPP^+ cations on hMAO-A and hMAO-B was studied using an experimental protocol described elsewhere [29, 40]
Evaluation of human monoamine oxidase (hMAO) inhibitory activity The human monoamine oxidase (hMAO) inhibitory outline was assessed in microsomal MAO isoforms prepared from insect cells (BTI-TN-5B1-4) infected with recombinant baculovirus containing cDNA inserts for hMAO-A or hMAO-B an d by measuring the enzymatic conversion rates of kynuramine into 4-hydroxyquinoline. The appropriate amounts of hMAO-A and hMAO-B were adjusted to obtain, in our experimental conditions, the same maximum
All assays were performed in sodium phosphate buffer solution 50 mM pH 7.4.
The compounds under study and reference inhibitors were pre-incubated at 37 °C for 10
concentration: 2×Km) in 96-well microplates (BRANDplates, pureGradeTM, BRAND GMBH, Wertheim, Germany). Then, the reaction was started with the addition of hMAO-A or hMAO-B.
Initial velocities were determined spectrophotometrically in a microplate reader (BioTek Synergy HT from BioTek Instruments, Winooski, VT, USA) at 37 °C by measuring the formation of 4-
The initial velocities, obtained from the linear phase of product formation, were normalized and plotted against the respective inhibitor concentration. IC50 values were obtained from dose-response curves and were expressed as mean ± standard deviation. IC50 values were determined from at least three independent experiments, each performed in triplicate.

T1 sequence (P81908 whole entry): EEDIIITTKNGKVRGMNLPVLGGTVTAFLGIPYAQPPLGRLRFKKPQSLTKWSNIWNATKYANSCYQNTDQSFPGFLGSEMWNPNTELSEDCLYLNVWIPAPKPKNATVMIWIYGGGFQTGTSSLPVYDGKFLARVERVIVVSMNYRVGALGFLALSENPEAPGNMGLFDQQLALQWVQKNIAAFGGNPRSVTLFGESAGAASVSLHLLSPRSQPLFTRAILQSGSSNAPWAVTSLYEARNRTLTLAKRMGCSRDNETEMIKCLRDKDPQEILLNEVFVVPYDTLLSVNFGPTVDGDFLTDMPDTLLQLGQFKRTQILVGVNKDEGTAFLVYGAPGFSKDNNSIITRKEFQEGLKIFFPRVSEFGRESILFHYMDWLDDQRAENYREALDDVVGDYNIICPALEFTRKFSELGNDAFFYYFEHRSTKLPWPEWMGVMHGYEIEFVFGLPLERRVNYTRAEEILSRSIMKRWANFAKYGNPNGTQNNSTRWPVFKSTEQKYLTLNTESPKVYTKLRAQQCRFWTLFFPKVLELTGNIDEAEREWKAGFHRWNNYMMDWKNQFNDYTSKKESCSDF

Compound | IC50 [1] [nM] | SI (1): eqBChE selectivity index = IC50(eeAChE)/IC50(eqBChE) [1] | Ep (redox potential), second overlapped anodic peak [2] [mV] | Ep (redox potential) [2] [mV] | IC50 (hMAO-B) [nM] | SI (3): hMAO-B selectivity index = IC50 (hMAO-A)/IC50 (hMAO-B) (hMAO-B)
O=C(/C=C/C=C/c1ccc2c(c1)OCO2)NCCCC[P+](c1ccccc1)(c1ccccc1)c1ccccc1.[Br-] [Compound 2, (4-((2E,4E)-5-(Benzo[d][1,3]dioxol-5-yl)penta-2,4-dienamido)butyl)triphenylphosphonium bromide] | 28.2 ± 1.4 | 226 | 1070 | 942 | 12400 ± 1900 | 0.07
O=C(/C=C/C=C/c1ccc(O)c(O)c1)NCCCC[P+](c1ccccc1)(c1ccccc1)c1ccccc1.[Br-] [Compound 4, (4-((2E,4E)-5-(3,4-Dihydroxyphenyl)penta-2,4-dienamido)butyl)triphenylphosphonium bromide] | 61.9 ± 4.2 | 36 |  | 125 | 13500 ± 1100 | 0.38
O=C(/C=C/C=C/c1ccc(O)c(O)c1)NCCCCCC[P+](c1ccccc1)(c1ccccc1)c1ccccc1.[Br-] [Compound 5, (6-((2E,4E)-5-(3,4-Dihydroxyphenyl)penta-2,4-dienamido)hexyl)triphenylphosphonium bromide] | 34.1 ± 2.9 | 62 |  | 144 | 10900 ± 700 | 0.20
O=C(/C=C/C=C/c1ccc2c(c1)OCO2)NCCCCCC[P+](c1ccccc1)(c1ccccc1)c1ccccc1.[Br-] [Compound 3, (6-((2E,4E)-5-(Benzo[d][1,3]dioxol-5-yl)penta-2,4-dienamido)hexyl)triphenylphosphonium bromide] | 17.9 ± 0.9 | 314 | 1083 | 931 | 4640 ± 290 | 0.26
